Experimental findings from paper PMC8158775, “Structure–Activity Relationship Assessment of Sophorolipid Ester Derivatives against Model Bacteria Strains” (Molecules, 2021) are described below.

SMILES strings stand for the structures. In brackets after ≈: the same amount, converted by molar mass. Entries after “also recorded” stand apart in the source; their conditions may differ. Read-outs that look alike come from different tables or passages of the source. A value given as a limit tells only on which side of the number the result lay.

The subject of data set [1] is Bacillus cereus (ATCC 4342). Description: Minimum inhibitory concentration (microdilution). The class given is cell-based. The following applies: read-out: MIC B. cereus. The method, then: (§1) Bacteria strains Staphylococcus aureus (ATCC 33807), Bacillus cereus (ATCC 4342), Bacillus subtilis (ATCC 21332), Listeria innocua (ATCC 33090), and Escherichia coli (ATCC 53323) were provided by Ravi Kane’s lab at Rensselaer Polytechnic Institute. Mueller–Hinton broth (MHB) was used for the Staphylococcus aureus culture, while tryptic soy broth (TSB) was used for the other strains. All strains were grown to the stationary phase for 24 h at 37 °C with agitation at 220 rpm. After overnight incubation, cultures were diluted to 5 × 10^6 CFU/mL prior to use.
(§2) The minimum inhibitory concentration (MIC) was determined using the microdilution technique. Modified sophorolipid (SL) derivatives were dissolved in DMSO to make 2 M stock solutions. A dilution series was made by diluting the stock solution to a range of concentrations from 200 µM to 4 µM and a final volume of 100 μL in 10% DMSO/phosphate-buffered saline (PBS) in each well of a 96-well plate. Bacterial inocula (100 μL, 5 × 10^6 CFU/mL) were added to each well, and the final DMSO concentration was 5%. Wells containing the same volumes of DMSO/PBS buffer and culture medium, with and without bacteria, were used as positive and negative controls, respectively. Streptomycin was used for comparison. The plate was then incubated with shaking for 16–30 h at 37 °C to ensure that cultures had reached stationary phase growth and the absorbance readings were recorded at a wavelength of 600 nm using an absorbance microplate reader. Absorbance data from 16–30 h were used to calculate the percent inhibition for each test condition. MIC was recorded as the lowest concentration of drug that inhibited more than 90% of bacterial growth. All assays were carried out in triplicate.
On the technique in general: Dilution methods test growth across graded concentrations, often in twofold steps.

Data set [2] has as its system Bacillus subtilis (ATCC 21332). Description: Minimum inhibitory concentration (microdilution). The class given is cell-based. The following applies: read-out: MIC B. subtilis. On the procedure:
as §1, §2

Data set [3] relates to Escherichia coli (ATCC 53323). Description: Minimum inhibitory concentration (microdilution). The class given is cell-based. The following applies: read-out: MIC E. coli. The method, then: as §1, §2
For data set [4], the system named is Listeria innocua (ATCC 33090). The data set can be described thus: Minimum inhibitory concentration (microdilution). The class given is cell-based. To be noted: read-out: MIC L. innocua. On the procedure: as §1, §2
Data set [5] concerns Staphylococcus aureus (ATCC 33807). Description: Minimum inhibitory concentration (microdilution). The class given is cell-based. To be noted: read-out: MIC S. aureus. On the procedure: as §1, §2
Another data set concerns B. cereus cell membrane. The data set can be described thus: Dye leakage / membrane depolarization assay with diS-C3(5). The class given is cell-based, Bacillus cereus. To be noted: 40 μg/mL (58–60 μM), t = 60 min, diS-C3(5) probe; listed as LSL. The method, then:
To probe the role of LSL and the SL-esters as membrane-active agents, dye leakage experiments were carried out. Polymyxin B, a well-known membrane-active agent, was used as a positive control. Polymyxin B is a cyclic peptide with long, hydrophobic tails that can insert into cell membranes causing cell lysis. First, time-course membrane-depolarizing studies were conducted (Figure 3A). […] Upon addition of B. cereus cells at 2 min, a rapid decay in fluorescence intensity was observed due to self-quenching caused by migration of the probe into membranes. Subsequent addition of the SL-esters at 4 min led to a sharp increase in the fluorescence signal, thus indicating enhanced permeability of the cell membrane driven by the presence of the SL derivative.
The disruption of bacterial membranes after treatment with LSL and SL-ester derivatives was tested using a fluorescence probe, diS-C3(5), which can be quenched by the electrically polarized membrane. B. Cereus grown to mid-log phase was adjusted to 2.5 × 10^6 CFU/mL in fresh MHB. […] Fluorescence data were recorded at 670 nm with excitation at 622 nm on Molecular Devices SPECTRAmax Plus 384 UV-VIS High Throughput Microplate Spectrophotometer and normalized against the negative control.

In data set [6] the test system is M1 activated macrophages (AMOs) from Raw 254.7 murine macrophages. The data set can be described thus: In vitro cytotoxicity study. The following applies: for cytotoxicity ranking: comparison within SL series. The class given is cell-based. An excerpt:
A potential antimicrobial candidate must selectively kill pathogen cells without harming the host mammalian cells. To test the ability of SLs to effectively discriminate between bacteria and mammalian cells, a cytotoxicity assay was previously reported by our team. […] The therapeutic index (TI) is a parameter commonly used to determine potential drug selectivity. […] Generally, membrane-active agents are not considered for systemic administration directly, because of relatively low selectivity. Thus, designing suitable formulations and selecting suitable dose ranges are important in drug development.

[7] abbreviates: Bacillus cereus, ATCC4342, incubation time 16 h, lowest concentration inhibiting more than 90% of bacterial growth.
The mark [8] stands for this setting: Bacillus subtilis, ATCC21332, incubation time 16 h, lowest concentration inhibiting more than 90% of bacterial growth.
The mark [9] stands for this setting: Escherichia coli, ATCC53323, incubation time 16 h, lowest concentration inhibiting more than 90% of bacterial growth.
The mark [10] stands for this setting: Listeria innocua, ATCC33090, incubation time 30 h, lowest concentration inhibiting more than 90% of bacterial growth.
Where [11] appears, read: incubation time 16 h, lowest concentration inhibiting more than 90% of bacterial growth.
Setting [12] is: Staphylococcus aureus, ATCC33807, incubation time 16 h, lowest concentration inhibiting more than 90% of bacterial growth.
The mark [13] stands for this setting: incubation time 30 h, lowest concentration inhibiting more than 90% of bacterial growth.
Setting [14] is: 16 h incubation, procedure of ref 17.

What is called MIC is the lowest concentration that inhibits growth of the organism. On to `CCOC(=O)CCCCCCC/C=C\CCCCCCC(C)OC1OC(COC(C)=O)C(O)C(O)C1OC1OC(COC(C)=O)C(O)C(O)C1O` (stereo not shown) [ESL-(6′Ac, 6″Ac)], for which the MIC in data set [1] (setting [7]) is 12 µM (≈ 8.82 µg/mL); in data set [2] (setting [8]), over 200 µM; in data set [3] (setting [9]), over 200 µM; in data set [4] (setting [10]) it was over 200 µM.
`CCOC(=O)CCCCCCC/C=C\CCCCCCC(C)OC1OC(COC(C)=O)C(O)C(O)C1OC1OC(CO)C(O)C(O)C1O` (stereo not shown) [ESL-(6′Ac, 6″OH)]: the MIC in data set [1] (setting [7]) was 25 µM (≈ 17.3 µg/mL); in data set [2] (setting [8]), 25 µM (≈ 17.3 µg/mL); in data set [3] (setting [9]) it was over 200 µM; in data set [4] (setting [10]), 25 µM (≈ 17.3 µg/mL).
As to `CCOC(=O)CCCCCCC/C=C\CCCCCCC(C)OC1OC(CO)C(O)C(O)C1OC1OC(COC(C)=O)C(O)C(O)C1O` (stereo not shown) [ESL-(6′OH, 6″Ac)], the MIC was 25 µM (≈ 17.3 µg/mL) in data set [1] (setting [7]), 25 µM (≈ 17.3 µg/mL) in data set [2] (setting [8]), over 200 µM in data set [3] (setting [9]) and 25 µM (≈ 17.3 µg/mL) in data set [4] (setting [10]).
For `CC(=O)OCC1OC2OC(C)CCCCCC/C=C\CCCCCCCC(=O)OC3C(COC(C)=O)OC(OC2C(O)C1O)C(O)C3O` (stereo not shown) [Lactonic SL, reference compound], the MIC is 25 µM (≈ 17.2 µg/mL) in data set [1] (setting [7]); 12 µM (≈ 8.27 µg/mL) in data set [2] (setting [8]); over 200 µM in data set [3] (setting [9]); over 200 µM in data set [3] (setting [11]); 50 µM (≈ 34.4 µg/mL) in data set [4] (setting [10]); 25 µM (≈ 17.2 µg/mL) in data set [5] (setting [12]). In the data set on B. cereus cell membrane, the “ability to enhance cell membrane permeability (endpoint fluorescence)” value is “non-significant ability to enhance cell membrane permeability; also recorded: failed to enhance membrane permeability”. Also, the “reduction in cell viability” value in data set [6] (at 50 µM, procedure of ref 17) is “roughly 50%”. In addition, the cytotoxicity ranking entry in data set [6] was “highest cytotoxicity”.
Regarding `CCCCOC(=O)CCCCCCC/C=C\CCCCCCC(C)OC1OC(CO)C(O)C(O)C1OC1OC(CO)C(O)C(O)C1O` (stereo not shown) [SL-butyl ester], the MIC in data set [1] (setting [7]) is 12 µM (≈ 8.15 µg/mL); in data set [1] (setting [11]), 12 µM (≈ 8.15 µg/mL); in data set [2] (setting [8]), 12 µM (≈ 8.15 µg/mL); in data set [2] (setting [11]), 12 µM (≈ 8.15 µg/mL); in data set [3] (setting [9]) it was over 200 µM; in data set [4] (setting [10]), 12 µM (≈ 8.15 µg/mL). The results for the MIC in data set [4] (setting [13]), in data set [5] (setting [12]) and in data set [5] (setting [11]) were 12 µM (≈ 8.15 µg/mL), 100 µM (≈ 67.9 µg/mL) and 100 µM (≈ 67.9 µg/mL), respectively. Moreover, in data set [6] (setting [14]), the “concentration up to which low to no cytotoxicity” value fell in the range of 100 to 200 µM.
Regarding `CCOC(=O)CCCCCCC/C=C\CCCCCCC(C)OC1OC(CO)C(O)C(O)C1OC1OC(CO)C(O)C(O)C1O` (stereo not shown) [SL-ethyl ester], the MIC in data set [1] (setting [7]) is 50 µM (≈ 32.5 µg/mL); in data set [2] (setting [8]), 50 µM (≈ 32.5 µg/mL); in data set [3] (setting [9]), over 200 µM; in data set [4] (setting [10]) it was 50 µM (≈ 32.5 µg/mL); in data set [5] (setting [12]), 200 µM (≈ 130 µg/mL). Moreover, in data set [6] (setting [14]), the “concentration up to which low to no cytotoxicity” value fell in the range of 100 to 200 µM.
In the case of `CCCCCCOC(=O)CCCCCCC/C=C\CCCCCCC(C)OC1OC(CO)C(O)C(O)C1OC1OC(CO)C(O)C(O)C1O` (stereo not shown) [SL-hexyl ester], the minimum inhibitory concentration (MIC) in data set [1] (setting [7]), in data set [1] (setting [11]), in data set [2] (setting [8]), in data set [2] (setting [11]), in data set [3] (setting [9]) and in data set [4] (setting [10]) was over 200 µM throughout. Besides, the MIC in data set [4] (setting [13]), in data set [5] (setting [12]) and in data set [5] (setting [11]) was over 200 µM throughout.
For `COC(=O)CCCCCCC/C=C\CCCCCCC(C)OC1OC(CO)C(O)C(O)C1OC1OC(CO)C(O)C(O)C1O` (stereo not shown) [SL-methyl ester], the MIC was 50 µM (≈ 31.8 µg/mL) in data set [1] (Bacillus cereus, ATCC4342, 16 h); 50 µM (≈ 31.8 µg/mL) in data set [1] (setting [11]); 50 µM (≈ 31.8 µg/mL) in data set [2] (Bacillus subtilis, ATCC21332, 16 h); 50 µM (≈ 31.8 µg/mL) in data set [2] (setting [11]); over 200 µM in data set [3] (Escherichia coli, ATCC53323, 16 h); 100 µM (≈ 63.7 µg/mL) in data set [4] (Listeria innocua, ATCC33090, 30 h). For the same molecule, the MIC in data set [4] (setting [13]) was 100 µM (≈ 63.7 µg/mL); in data set [5] (Staphylococcus aureus, ATCC33807, 16 h), 200 µM (≈ 127 µg/mL); in data set [5] (setting [11]), 200 µM (≈ 127 µg/mL). For the same molecule, in data set [6] (400 µM, 16 h incubation, procedure of ref 17), the cell reduction entry was “no significant cell reduction”. In data set [6], the cytotoxicity ranking result is listed as “lowest toxicity”.
For `CCCCCOC(=O)CCCCCCC/C=C\CCCCCCC(C)OC1OC(CO)C(O)C(O)C1OC1OC(CO)C(O)C(O)C1O` (stereo not shown) [SL-pentyl ester], the MIC in data set [1] (setting [7]) is 12 µM (≈ 8.31 µg/mL); in data set [2] (setting [8]) it was over 200 µM; in data set [3] (setting [9]), over 200 µM; in data set [4] (setting [10]) it was 12 µM (≈ 8.31 µg/mL); in data set [5] (setting [12]), over 200 µM.
As to `CCCOC(=O)CCCCCCC/C=C\CCCCCCC(C)OC1OC(CO)C(O)C(O)C1OC1OC(CO)C(O)C(O)C1O` (stereo not shown) [SL-propyl ester], the MIC is 25 µM (≈ 16.6 µg/mL) in data set [1] (setting [7]); 25 µM (≈ 16.6 µg/mL) in data set [2] (setting [8]); over 200 µM in data set [3] (setting [9]); 25 µM (≈ 16.6 µg/mL) in data set [4] (setting [10]); 100 µM (≈ 66.5 µg/mL) in data set [5] (setting [12]). Also, the “concentration up to which low to no cytotoxicity” value in data set [6] (setting [14]) is 100 to 200 µM.
For the molecule `[H]/N=C(/N)N[C@H]1[C@H](O)[C@@H](O)[C@H](O[C@@H]2O[C@@H](C)[C@](O)(C=O)[C@H]2O[C@@H]2O[C@@H](CO)[C@H](O)[C@@H](O)[C@@H]2NC)[C@@H](N/C(N)=N\[H])[C@@H]1O` [Streptomycin, reference compound], the MIC is 12 µM (≈ 6.98 µg/mL) in data set [1] (setting [7]); 12 µM (≈ 6.98 µg/mL) in data set [2] (setting [8]); 12 µM (≈ 6.98 µg/mL) in data set [3] (setting [9]); 24 µM (≈ 14 µg/mL) in data set [4] (setting [10]); 3 µM (≈ 1.74 µg/mL) in data set [5] (setting [12]).
